Test results taken from patent US4835185A, “Immunomodulator for improving commercial performance of domestic animals” (Iowa State University Research Foundation, Inc., priority 1987, dated 1989).

Experiments:
[1] = Feeding of calcium versus sodium KIC to ruminants; assay type: in vivo, ruminants such as cattle and sheep
[2] = Water solubility of KIC salts; assay type: physicochemical; conditions: vs ammonium and alkali metal salts
[3] = test system: plasma cortisol; assay: Plasma cortisol in pigs after test meals; assay type: in vivo
Description: To determine if KIC could acutely alter cortisol concentrations, young pigs were fed meals supplemented with leucine or KIC and plasma cortisol was measured.
In experiment 1, sixteen female pigs weighing 20-30 kg were used. Seven days before study, catheters were surgically placed in the right atria for blood sampling. Animals were housed in individual cages during the recovery period and had free access to water. Preceding the experiment, animals were fed twice daily a basal diet (2% of body weight per feeding). The basal diet consisted of a corn-soybean mix, adequate in all minerals and vitamins and containing approximately 14% crude protein. Test meals were formulated by additions to a basal diet. Five animals received the basal diet (control); five animals received the leucine meal, which had 2% leucine added to the basal diet; and six animals received the KIC diet, which had 2% KIC (sodium salt equivalent to 1.7% free acid) added to the basel diet. Studies were begun between 0800 and 0900 h after a 24-hr fast. Basal blood samples were taken at -20, -10 and -5 min. Animals were then offered 100 g of their respective test meal (time 0). Pigs were included in the study only if they consumed the entire meal in the first 20 min. […] Plasma was separated, Trasylol (FBA Pharmaceuticals, New York, NY) added (50 ul/ml), and plasma stored at -70 C. until analyzed.
(§1) Cortisol was measured by coated tube kits (Gammacoat, Travenol-Genetech Diagnostics, Cambridge, MA). Leucine and KIC were measured by high pressure liquid chromatography. Crystalline leucine was obtained from Sigma Chemical (St. Louis, MO) and KIC-sodium was obtained from SOBAC (Paris, France). Statistical analysis of the individual pig responses was conducted on mean plasma concentrations before the meal (-20 to 0 min) and after the meal (120 to 240 min). When the overall treatment F-value was significant, differences between individual treatments were determined using the pooled SEM and a T-test.

[4] = set-up: species or system pigs; conditions: pig, in vivo
Description: In experiment 1, sixteen female pigs weighing 20-30 kg were used. Seven days before study, catheters were surgically placed in the right atria for blood sampling. Animals were housed in individual cages during the recovery period and had free access to water. Preceding the experiment, animals were fed twice daily a basal diet (2% of body weight per feeding). The basal diet consisted of a corn-soybean mix, adequate in all minerals and vitamins and containing approximately 14% crude protein. Test meals were formulated by additions to a basal diet. Five animals received the basal diet (control); five animals received the leucine meal, which had 2% leucine added to the basal diet; and six animals received the KIC diet, which had 2% KIC (sodium salt equivalent to 1.7% free acid) added to the basel diet. Studies were begun between 0800 and 0900 h after a 24-hr fast. Basal blood samples were taken at -20, -10 and -5 min. Animals were then offered 100 g of their respective test meal (time 0). Pigs were included in the study only if they consumed the entire meal in the first 20 min. Blood was sampled every 30 min from 120 to 240 min. Plasma was separated, Trasylol (FBA Pharmaceuticals, New York, NY) added (50 ul/ml), and plasma stored at -70 C. until analyzed.
as §1

Compound | effectiveness relative to sodium salt [1] | water solubility [2] | Plasma cortisol, Change ([3]; 2% in meal, control -0.09) | Plasma cortisol, Post ([3]; 2% in meal, pre: leucine 2.8, KIC 4.7, pooled SEM 0.49) | change in plasma cortisol ([3]; 2% leucine in meal, nonsignificant) | Plasma KIC, Change [4] | Plasma leucine, Change [4] | increase of plasma leucine concentration [4] | Plasma KIC, Post ([4]; 240 min) | Plasma leucine, Post ([4]; 240 min)
CC(C)CC(=O)C(=O)O [Ca-KIC] | generally comparably effective with the sodium salt | less water-soluble | – | – | – | – | – | – | – | –
CC(C)C[C@H](N)C(=O)O [leucine, reference compound] | – | – | -0.48 µg/dL | 2.4 µg/dL | -14% | 66 µM | 518 µM | 4 fold | 90 µM | 664 µM
